From patent US20050148631A1, “Amino heterocyclyl inhibitors of 11-beta-hydroxy steroid dehydrogenase type 1” (AGOURON PHARMACEUTICALS, INC., priority 2003, published 2005)
Where two headings read alike, the source gives them in different places.

Legend:
11β-hsd-1 enzyme [1] = target: T1, 11β-hsd-1 enzyme (Homo sapiens, UniProt P28845); assay: 11β-hsd-1 enzyme assay, percentage of inhibition (3H-cortisone to cortisol, radio-HPLC); format: biochemical; conditions: for inhibition at 0.1 µM: read-out: % inh @ 0.1 uM
T1 sequence (P28845 whole entry, species assumed): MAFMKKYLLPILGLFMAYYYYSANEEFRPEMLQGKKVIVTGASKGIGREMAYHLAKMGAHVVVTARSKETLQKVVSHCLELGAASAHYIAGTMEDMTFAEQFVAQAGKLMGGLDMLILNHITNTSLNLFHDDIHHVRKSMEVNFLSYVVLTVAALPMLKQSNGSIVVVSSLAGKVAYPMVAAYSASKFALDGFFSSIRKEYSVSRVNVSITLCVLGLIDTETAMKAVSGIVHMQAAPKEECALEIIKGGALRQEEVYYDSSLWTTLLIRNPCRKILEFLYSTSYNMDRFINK

11β-hsd-1 enzyme [2] = target: T1, 11β-hsd-1 enzyme; assay: 11β-hsd-1 enzyme assay, Kiapp determination (3H-cortisone to cortisol, radio-HPLC); format: biochemical; conditions: read-out: Ki app

Structure (SMILES) | inhibition at 0.1 µM (11β-hsd-1 enzyme [1]; compound at 0.1 uM) | Ki (11β-hsd-1 enzyme [2]; apparent Ki, 11β-hsd-1 enzyme) | inhibition at 0.1 µM (11β-hsd-1 enzyme [1]; 0.1 uM) | Ki (11β-hsd-1 enzyme [2]) | % inh @ 0.1 uM (11β-hsd-1 enzyme [1]; 0.1 uM)
Cc1cccc(NS(=O)(=O)c2ccc(-c3ccc(CO)cc3)c(C)c2)n1 [Example 223] | 79% | 320 nM |  |  | 
Cc1cccc(NS(=O)(=O)c2ccc(-c3ccc(Cl)cc3)cc2)n1 [Example 249, 4′-Chloro-biphenyl-4-sulfonic acid (6-methyl-pyridin-2-yl)-amide] | 96% | 5.8 nM |  |  | 
Cc1cccc(NS(=O)(=O)c2ccc(-c3ccccc3F)cc2C)n1 [Example 186] |  |  | 95% | 9.3 nM | 
COc1ccc(NS(=O)(=O)c2sc3ccc(Cl)cc3c2C)nn1 [Example 68] |  |  | 100% | 8.3 nM | 
Cc1cccc(NS(=O)(=O)N2CCc3ccccc3C2)n1 [Example 300] | 88.3% | 11 nM |  |  | 
Cc1cccc(NS(=O)(=O)c2ccc(-c3ccc(C#N)cc3C(F)(F)F)cc2)n1 [Example 272] | 100% | 12 nM |  |  | 
CCc1cccc(NS(=O)(=O)c2sc(-c3ccccc3)nc2C)n1 [Example 104] |  |  | 89.6% | 23 nM | 
Cc1cccc(NS(=O)(=O)c2ccc(-c3ccc(F)c(C)c3)cc2C)n1 [Example 183] |  |  | 91% | 14 nM | 
COc1ccc(-c2ccc(S(=O)(=O)Nc3cccc(C)n3)cc2)cn1 [Example 256] | 89.3% | 34.9 nM |  |  | 
Cc1cccc(NS(=O)(=O)c2ccc(-c3cccc(F)c3F)cc2C)n1 [Example 198] | 100% | 7.5 nM |  |  | 
N#Cc1ccc(-c2ccc(S(=O)(=O)Nc3cccc(C4CC4)n3)cc2)cc1 [Example 112, 4′-Cyano-biphenyl-4-sulfonic acid (6-cyclopropyl-pyridin-2-yl)-amide] |  |  | 100% | 1.9 nM | 
CCOc1ccc(-c2ccc(S(=O)(=O)Nc3cccc(C)n3)cc2)c(C)c1 [Example 254] | 85.4% | 22.4 nM |  |  | 
Cc1cccc(NS(=O)(=O)N2CCC(c3ccccc3)CC2)n1 [Example 306] | 100% | 7.4 nM |  |  | 
CCN(CC)C(=O)Cc1cccc(NS(=O)(=O)c2sc3ccc(Cl)cc3c2C)n1 [Example 19, 2-[6-(5-Chloro-3-methyl-benzo[b]thiophene-2-sulfonylamino)-pyridin-2-yl]-N,N-diethyl-acetamide] |  |  | 96.9% | 4.8 nM | 
Cc1cccc(NS(=O)(=O)c2ccc(-c3ccc(C#N)cc3)cc2)n1 [Example 33, 4′-Cyano-biphenyl-4-sulfonic acid (6-methyl-pyridin-2-yl)-amide] |  |  | 97% | 6.4 nM | 
Cc1cccc(NS(=O)(=O)c2ccc(-c3ccc(C#N)cc3)cc2C)n1 [Example 277, 4′-Cyano-3-methyl-biphenyl-4-sulfonic acid (6-methyl-pyridin-2-yl)-amide] | 100% | < 1 nM |  |  | 
COc1ccc(-c2ccc(S(=O)(=O)Nc3cccc(C)n3)c(C)c2)cc1C [Example 205] | 86% | 19 nM |  |  | 
Cc1cccc(NS(=O)(=O)c2cccc(Cl)c2C)n1 [Example 38] |  |  |  | 169 nM | 49%
COc1cccc(-c2ccc(S(=O)(=O)Nc3cccc(C)n3)cc2)c1 [Example 160] |  |  | 66.8% | 36.2 nM | 
Cc1cccc(NS(=O)(=O)c2sc3ccc(C#N)cc3c2C)n1 [Example 91] |  |  | 100% | 2.3 nM | 
Cc1c(S(=O)(=O)Nc2cccc(N)n2)sc2ccc(Cl)cc12 [Example 107] |  |  | 100% | < 1 nM | 
O=S(=O)(Nc1ccc2ccccc2n1)c1ccc(-c2ccc(F)cc2)cc1 [Example 48] |  |  | 90% | 14.5 nM | 

Structure (SMILES) | inhibition at 0.1 µM (11β-hsd-1 enzyme [1]; compound at 0.1 uM) | Ki (11β-hsd-1 enzyme [2]; apparent Ki, 11β-hsd-1 enzyme) | inhibition at 0.1 µM (11β-hsd-1 enzyme [1]; 0.1 uM) | Ki (11β-hsd-1 enzyme [2]) | % inh @ 0.1 uM (11β-hsd-1 enzyme [1]; 0.1 uM)
Cc1cccc(NS(=O)(=O)c2ccc(-c3ccc(C#N)cc3)c(C)c2)n1 [Example 281] | 92.9% | 10 nM |  |  | 
CCCCc1ccc(-c2ccc(S(=O)(=O)Nc3cccc(C)n3)c(C)c2)cc1 [Example 209] | 88% | 18 nM |  |  | 
Cc1cccc(NS(=O)(=O)c2ccc(-c3cccc(F)c3)cc2)n1 [Example 133] |  |  | 84.8% | 24.7 nM | 
Cc1cccc(NS(=O)(=O)c2ccc(-c3ccc(C(C)C)cc3)cc2C)n1 [Example 190] |  |  | 78% | 35 nM | 
Cc1cccc(NS(=O)(=O)c2ccc(-c3ccc(C(F)(F)F)cn3)cc2)n1 [Example 271] | 87.7% | 20 nM |  |  | 
Cc1cccc(NS(=O)(=O)c2ccc(-c3ccccc3C)cc2C)n1 [Example 172] |  |  | 82% | 48 nM | 
Cc1cccc(NS(=O)(=O)c2ccc(-c3ccc(C#N)c(C)c3)cc2)n1 [Example 273] | 95.5% | 5.3 nM |  |  | 
Cc1cccc(NS(=O)(=O)c2ccc(-c3ccc(F)cc3C)cc2)n1 [Example 253] | 79.3% | 33.4 nM |  |  | 
COc1cccc(-c2ccc(S(=O)(=O)Nc3cccc(C)n3)c(C)c2)c1 [Example 162] |  |  | 89% | 21 nM | 
Cc1cc(C)nc(NS(=O)(=O)N2CCc3ccccc3C2)c1 [Example 304] | 79.6% | 20 nM |  |  | 
Cc1cccc(NS(=O)(=O)c2ccc(-c3ccc(F)c(Cl)c3)c(C)c2)n1 [Example 219] | 68% | 17 nM |  |  | 
Cc1cccc(NS(=O)(=O)c2ccc(-c3ccccc3)c(C)c2)n1 [Example 214] | 72% | 36 nM |  |  | 
Cc1cccc(NS(=O)(=O)N2CCC(Oc3ccccc3)CC2)n1 [Example 314] | 71.8% | 52 nM |  |  | 
Cc1cccc(NS(=O)(=O)N2CCC(c3cccc(F)c3)CC2)n1 [Example 309] | 90% | 7.6 nM |  |  | 
N#Cc1ccc(-c2ccc(S(=O)(=O)Nc3cccc(CCO)n3)cc2)cc1 [Example 117] |  |  | 84.8% | 26.2 nM | 
Cc1cccc(NS(=O)(=O)c2ccc(-c3ccc(F)cc3F)cc2C)n1 [Example 179] |  |  | 95% | 6.2 nM | 
Cc1cccc(NS(=O)(=O)c2ccc(-c3cc(F)c(F)c(F)c3)cc2C)n1 [Example 184] |  |  | 97% | 12 nM | 
COc1ccc(-c2ccc(S(=O)(=O)Nc3cccc(C)n3)cc2C)cc1 [Example 216] | 73% | 43 nM |  |  | 
Cc1cccc(NS(=O)(=O)c2ccc(C(C)C)cc2)n1 [Example 70] |  |  | 78.7% | 216 nM | 
Cc1cccc(NS(=O)(=O)c2ccc(-c3cccc(C)c3C)cc2C)n1 [Example 197] | 89% | 29 nM |  |  | 
Cc1cccc(NS(=O)(=O)c2ccc(-c3ccc(C#N)c(Cl)c3)cc2)n1 [Example 274] | 94.4% | 3.5 nM |  |  | 
Cc1cccc(NS(=O)(=O)c2ccc(-c3cccc(F)c3)cc2C)n1 [Example 173] |  |  | 97% | 9.6 nM | 

Structure (SMILES) | inhibition at 0.1 µM (11β-hsd-1 enzyme [1]; compound at 0.1 uM) | Ki (11β-hsd-1 enzyme [2]; apparent Ki, 11β-hsd-1 enzyme) | inhibition at 0.1 µM (11β-hsd-1 enzyme [1]; 0.1 uM) | Ki (11β-hsd-1 enzyme [2]) | % inh @ 0.1 uM (11β-hsd-1 enzyme [1]; 0.1 uM)
CCOc1ccccc1-c1ccc(S(=O)(=O)Nc2cccc(C)n2)cc1C [Example 232] | 78% | 660 nM |  |  | 
Cc1cccc(NS(=O)(=O)c2ccc(-c3cccc(F)c3)c(C)c2)n1 [Example 224] | 93% | 19 nM |  |  | 
Cc1cccc(NS(=O)(=O)c2ccc(-c3ccc(Cl)cc3)cc2C)n1 [Example 168] |  |  | 96% | 2.8 nM | 
Cc1cc(C)nc(NS(=O)(=O)N2CCC(c3ccc(C#N)cc3)CC2)c1 [Example 311] | 100% | 2.6 nM |  |  | 
CCc1cccc(NS(=O)(=O)N2CCc3ccccc3C2)n1 [Example 303] | 89.3% | 7.6 nM |  |  | 
Cc1cccc(NS(=O)(=O)c2ccc(-c3ccccc3O)cc2C)n1 [Example 181] |  |  | 83% | 53 nM | 
Cc1cccc(NS(=O)(=O)c2ccc(-c3ccc(CC(C)C)cc3)cc2C)n1 [Example 210] | 74% | 47 nM |  |  | 
Cc1ccc(-c2ccc(S(=O)(=O)Nc3cccc(C)n3)c(C)c2)cc1 [Example 171] |  |  | 93% | 6.9 nM | 
Cc1cccc(NS(=O)(=O)c2cccc(Cl)c2C)n1 [Example 34] |  |  | 48.8% | 169 nM | 
CCOC(=O)Cc1cccc(NS(=O)(=O)c2sc3ccc(Cl)cc3c2C)n1 [Example 6] |  |  | 100% | 2.8 nM | 
Cc1cccc(NS(=O)(=O)c2ccc(-c3ccc(F)cc3)cc2C)n1 [Example 279] | 100% | 4.5 nM |  |  | 
CCc1cccc(NS(=O)(=O)c2sc3ccc(Cl)cc3c2C)n1 [Example 69] |  |  | 100% | 1.1 nM | 
Cc1cccc(NS(=O)(=O)c2ccc(-c3ccc(F)c(Cl)c3)cc2C)n1 [Example 170] |  |  | 93% | 8.1 nM | 
COc1ccc(-c2ccc(S(=O)(=O)Nc3cccc(C)n3)c(C)c2)cc1 [Example 169] |  |  | 93% | 19 nM | 
Cc1cccc(NS(=O)(=O)c2ccc(-c3ccc(C#N)cc3)c(F)c2)n1 [Example 284, 4′-Cyano-2-fluoro-biphenyl-4-sulfonic acid (6-methyl-pyridin-2-yl)-amide] | 100% | 3.4 nM |  |  | 
Cc1cccc(NS(=O)(=O)c2ccc(-c3ccncc3)cc2)n1 [Example 257] | 74.7% | 120 nM |  |  | 
Cc1cccc(NS(=O)(=O)c2ccc(-c3ccc(CO)cc3)cc2C)n1 [Example 180] |  |  | 65% | 75 nM | 
Cc1cccc(NS(=O)(=O)c2ccc(-c3cccc(F)c3F)c(C)c2)n1 [Example 238] | 82% | 27 nM |  |  | 
Cc1cccc(NS(=O)(=O)c2ccc(-c3ccc4c(c3)OCCO4)cc2C)n1 [Example 206] | 87% | 20 nM |  |  | 
Cc1cccc(NS(=O)(=O)c2ccc(-c3cccc(C(C)C)c3)cc2C)n1 [Example 193] |  |  | 78% | 39 nM | 
Cc1cccc(NS(=O)(=O)c2ccc(-c3ccccc3)cc2C)n1 [Example 166] |  |  | 95% | 12 nM | 
